Where two headings read alike, the source gives them in different places.
Columns and labels:
cell-free SARS-CoV-2 PsV = assay: Inactivation of cell-free SARS-CoV-2 PsV; assay type: cell-based
authentic HCoV-OC43 = assay: CPE reduction assay, authentic HCoV-OC43; assay type: cell-based; details: HCoV-OC43 infection, RD cells, CCK-8
H5N1 PsV = assay: microbe, parasite or virus in culture; assay type: cell-based, influenza virus; details: read-out: IC50 H5N1
H7N9 PsV = assay: microbe, parasite or virus in culture; assay type: cell-based, influenza virus; details: read-out: IC50 H7N9
EBOV (Zaire) = assay: microbe, parasite or virus in culture; assay type: cell-based, Ebola virus
EBOV (Sudan) = assay: microbe, parasite or virus in culture; assay type: cell-based, Ebola virus
NiV = assay: microbe, parasite or virus in culture; assay type: cell-based, Nipah virus
LASV = assay: organism not typed; assay type: cell-based, Lassa fever virus
[1] = test system: authentic ZIKV PRVABC59 (2015/Puerto Rico); assay: microbe, parasite or virus in culture; assay type: cell-based
VSV PsV = assay: microbe, parasite or virus in culture; assay type: cell-based, vesicular stomatitis virus
HPV PsV = assay type: cell-based, human papilloma virus
authentic EV71 = assay: CPE reduction assay, authentic EV71; assay type: cell-based, human enterovirus 71 virus; details: RD cells
HIV-1 6-HB = HIV-1 6-HB (Human immunodeficiency virus type 1, UniProt P04578); assay: Inhibition of HIV-1 6-HB formation (ELISA); assay type: biochemical; details: HIV-1 6-HB formation measured by ELISA
HIV-1 Bal.01 PsV [2] = assay: Sucrose density gradient assay to evaluate viral inactivation; details: HIV-1 Bal.01 PsV treated with 50 μM at 37 °C for 2 h
SARS-CoV-2 PsV [3] = assay type: cell-based
HIV-1 Bal.01 PsV [4] = assay: HIV-1 PsV inhibition in presence of recombinant unilamellar liposomes; assay type: cell-based; details: compared with the PBS group
[5] = test system: authentic IAV H3N2 (A/Victoria/361/2011); assay type: cell-based, influenza virus
[6] = test system: authentic IAV H1N1 (A/California/04/2009); assay type: cell-based, influenza virus
Vero E6 cells = assay type: cell-based
SARS-CoV PsV [7] = test system: SARS-CoV PsV
cell-free SARS-CoV PsV [8] = test system: cell-free SARS-CoV PsV
MERS-CoV PsV [9] = test system: MERS-CoV PsV
cell-free MERS-CoV PsV [10] = test system: cell-free MERS-CoV PsV
Huh-7 cells = assay: Cytotoxicity (CCK-8) on Huh-7 cells
hACE2-293T cells = assay: Cytotoxicity (CCK-8) on hACE2-293T cells
SARS-CoV-2 PsV [11] = assay: microbe, parasite or virus in culture; assay type: cell-based; details: Severe acute respiratory syndrome coronavirus 2
[12] = test system: pseudotyped SARS-CoV-2 Alpha (B.1.1.7); assay: microbe, parasite or virus in culture; assay type: cell-based; details: Severe acute respiratory syndrome coronavirus 2, Caco-2
[13] = test system: pseudotyped SARS-CoV-2 Beta (B.1.351); assay: microbe, parasite or virus in culture; assay type: cell-based; details: Severe acute respiratory syndrome coronavirus 2, Caco-2
[14] = test system: pseudotyped SARS-CoV-2 Gamma (P.1); assay: microbe, parasite or virus in culture; assay type: cell-based; details: Severe acute respiratory syndrome coronavirus 2, Caco-2
[15] = test system: pseudotyped SARS-CoV-2 Omicron (B.1.1.529); assay: microbe, parasite or virus in culture; assay type: cell-based; details: Severe acute respiratory syndrome coronavirus 2, Caco-2
[16] = test system: authentic SARS-CoV-2 WT (nCoV-SH01); assay: microbe, parasite or virus in culture; assay type: cell-based; details: Severe acute respiratory syndrome coronavirus 2, Vero C1008
in vitro = details: dog
[17] = Cytotoxicity (CCK-8) on Huh-7 cells; details: human
SARS-CoV PsV [18] = assay: microbe, parasite or virus in culture; details: Severe acute respiratory syndrome coronavirus
cell-free SARS-CoV PsV [19] = assay: microbe, parasite or virus in culture; details: Severe acute respiratory syndrome coronavirus
MERS-CoV PsV [20] = assay: microbe, parasite or virus in culture; details: Middle East respiratory syndrome-related coronavirus, Huh-7
cell-free MERS-CoV PsV [21] = assay: microbe, parasite or virus in culture; details: Middle East respiratory syndrome-related coronavirus, Huh-7
[22] = Cytotoxicity (CCK-8) on hACE2-293T cells; details: human

Sequence of HIV-1 6-HB (P04578 536-581, added parts left off): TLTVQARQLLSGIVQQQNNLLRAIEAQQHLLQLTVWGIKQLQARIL
Sequence of HIV-1 6-HB (P04578 536-581, added parts left off): as above

## O=C(O)c1cc(-c2ccc(C=C3SC(=S)N(CCc4ccccc4)C3=O)o2)ccc1Cl [FD001, furanyl methylidene rhodanine]
cell-free SARS-CoV-2 PsV
  EC50: 670 nM
Authentic HCoV-OC43
  IC50: 480 nM
H5N1 PsV
  IC50: 260 ± 30 nM
H7N9 PsV
  IC50: 850 ± 210 nM
EBOV (Zaire)
  IC50: 1040 ± 110 nM
EBOV (Sudan)
  IC50: 390 ± 40 nM
NiV
  IC50: 410 ± 70 nM
LASV
  IC50: 440 ± 100 nM
[1]; read-out: IC50
  IC50: 4360 nM
VSV PsV; read-out: IC50
  IC50: 20 nM
HPV PsV
  inhibition of infection of nonenveloped HPV PsV: could not inhibit
Authentic EV71
  inhibition of infection of authentic EV71: could not inhibit
HIV-1 6-HB
  IC50: 17400 nM
HIV-1 Bal.01 PsV [2]
  integrity of the viral membrane (band distribution of p24): did not disrupt the integrity of the viral membrane
SARS-CoV-2 PsV [3]
  inhibition of SARS-CoV-2 PsV infection after unbound compound washed from cells: not effective in inhibiting viral infection after washing
HIV-1 Bal.01 PsV [4]
  antiviral activity, liposomes added to HIV-1 PsV pretreated with compound: good antiviral activity
  inhibitory activity against HIV-1 PsV, compound pretreated with liposomes: no different from that of the PBS group
[5]
  inhibition of authentic IAV H3N2 infection: inhibited
[6]
  inhibition of authentic IAV H1N1 infection: inhibited
Vero E6 cells
  fluorescence intensity of treated cells (binding to cells): positively correlated with compound concentration
SARS-CoV PsV [7]
  IC50: 180 ± 20 nM
  SI CC50/IC50: 160.22
cell-free SARS-CoV PsV [8]
  EC50: 1580 ± 210 nM
  SI CC50/EC50: 18.25
MERS-CoV PsV [9]
  IC50: 290 ± 30 nM
  SI CC50/IC50: 147.07
cell-free MERS-CoV PsV [10]
  EC50: 1120 ± 160 nM
  SI CC50/EC50: 38.08
MDCK cells
  CC50: > 50000 nM
Huh-7 cells
  CC50: 42600 ± 1310 nM
hACE2-293T cells
  CC50: 28800 ± 1240 nM

## O=C(O)c1cc(-c2ccc(/C=C3\SC(=S)N(CCc4ccc(OCC5CC5)cc4)C3=O)o2)ccc1Cl [FD012]
SARS-CoV-2 PsV [11]
  IC50: 30 nM
[12]
  IC50: 350 nM
[13]
  IC50: 270 nM
[14]
  IC50: 250 nM
[15]
  IC50: 770 nM
[16]
  IC50: 410 nM
cell-free SARS-CoV-2 PsV; Severe acute respiratory syndrome coronavirus 2
  EC50: 40 nM
Authentic HCoV-OC43; Betacoronavirus 1
  IC50: 110 nM
H5N1 PsV; Influenza A virus, H5N1, MDCK
  IC50: 150 ± 10 nM
H7N9 PsV; Influenza A virus, H7N9, MDCK
  IC50: 230 ± 20 nM
EBOV (Zaire); Zaire ebolavirus, Huh-7
  IC50: 90 ± 20 nM
EBOV (Sudan); Zaire ebolavirus, Huh-7
  IC50: 190 ± 20 nM
NiV; Henipavirus nipahense, U-87 MG
  IC50: 70 ± 10 nM
LASV; Huh-7
  IC50: 320 ± 40 nM
[1]; Zika virus, Vero C1008
  IC50: 910 nM
VSV PsV; Vesicular stomatitis virus, Huh-7
  IC50: 5 nM
HPV PsV
  inhibition of infection of nonenveloped HPV PsV: could not inhibit
Authentic EV71
  inhibition of infection of authentic EV71: could not inhibit
HIV-1 6-HB
  IC50: 50100 nM
SARS-CoV-2 PsV [3]
  inhibition of SARS-CoV-2 PsV infection after unbound compound washed from cells: not effective in inhibiting viral infection after washing
Vero E6 cells
  fluorescence intensity of treated cells (binding to cells): positively correlated with compound concentration
SARS-CoV PsV [7]
  inhibitory activity relative to FD001: ~10 fold
cell-free SARS-CoV PsV [8]
  SI CC50/EC50: 102.50
MERS-CoV PsV [9]
  SI CC50/IC50: 169.27
cell-free MERS-CoV PsV [10]
  SI CC50/EC50: 372.40
In vitro
  CC50: 41700 nM
[17]
  CC50 at 48 h: 18600 ± 350 nM
SARS-CoV PsV [18]
  IC50: 20 ± 10 nM
cell-free SARS-CoV PsV [19]
  EC50: 120 ± 10 nM
MERS-CoV PsV [20]
  IC50: 110 ± 10 nM
cell-free MERS-CoV PsV [21]
  EC50: 50 ± 10 nM
[22]
  CC50 at 48 h: 12300 ± 340 nM
